# Source: article PMC5515279 (2014)
# Tests used:
# [1] = test system: TA[Q] (DNA, G4) TAGGGTTAGGGTTAGGGTTAGGG; assay: fluorescence titration; settings: K+ 0.1 M; 25 mM Tris-HCl pH 7.5, 1 mM EDTA, 18 °C; 0.5 μM compound
# [2] = test system: rUA[Q] (RNA, G4) UAGGGUUAGGGUUAGGGUUAGGG; assay: fluorescence titration; settings: K+ 0.1 M; 25 mM Tris-HCl pH 7.5, 1 mM EDTA, 18 °C (general conditions)
smiles,measurement,setting,value
COc1cc2c(cc1OC)-c1cc3ccc(OC)c(OC)c3c[n+]1CC2,K11,[1],(4.1 ± 0.4) × 10^5 M^-1
COc1cc2c(cc1OC)-c1cc3ccc4c(c3c[n+]1CC2)OCO4,binding constant,[2],(1.2 ± 0.2) × 10^6 M^-1
same,Kd,[1],0.037 ± 0.008 µM
COc1ccc2cc3[n+](cc2c1OC)CCc1cc2c(cc1-3)OCO2,K11,[1],(4.1 ± 0.4) × 10^5 M^-1
Cc1c2[n+](cc3c4c(ccc13)OCO4)CCc1cc3c(cc1-2)OCO3,K11,[1],(5.1 ± 0.4) × 10^5 M^-1
c1c2c(cc3c1OCO3)-c1cc3ccc4c(c3c[n+]1CC2)OCO4,K11,[1],(1.4 ± 0.5) × 10^6 M^-1
